The values below come from US10479780B2, “Aminopyrazole derivatives” (Chugai Seiyaku Kabushiki Kaisha, priority 2015, dated 2019).

Structures are written as SMILES.

Format in all cases: biochemical
One assay has as its target T1, human Src enzyme (Homo sapiens, UniProt P12931).
T1 construct: purchased Carna Biosciences, Inc. 08-173
The assay can be described thus: Src enzyme inhibitory activity (time-resolved fluorometry, biotinylated peptide phosphorylation). The following applies: read-out: SRC_IC50. Summed up:
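Compounds were tested for blocking tyrosine phosphorylation of a biotinylated peptide substrate by recombinant human Src. Phosphorylated product was quantified by time-resolved fluorometry using europium cryptate and XL665 conjugates, and IC50 was calculated against the compound-free control.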

For another assay, the target named is T2, human Lck enzyme (Homo sapiens, UniProt P06239).
T2 construct: purchased Carna Biosciences, Inc. 08-170
T2 sequence (P06239 whole entry): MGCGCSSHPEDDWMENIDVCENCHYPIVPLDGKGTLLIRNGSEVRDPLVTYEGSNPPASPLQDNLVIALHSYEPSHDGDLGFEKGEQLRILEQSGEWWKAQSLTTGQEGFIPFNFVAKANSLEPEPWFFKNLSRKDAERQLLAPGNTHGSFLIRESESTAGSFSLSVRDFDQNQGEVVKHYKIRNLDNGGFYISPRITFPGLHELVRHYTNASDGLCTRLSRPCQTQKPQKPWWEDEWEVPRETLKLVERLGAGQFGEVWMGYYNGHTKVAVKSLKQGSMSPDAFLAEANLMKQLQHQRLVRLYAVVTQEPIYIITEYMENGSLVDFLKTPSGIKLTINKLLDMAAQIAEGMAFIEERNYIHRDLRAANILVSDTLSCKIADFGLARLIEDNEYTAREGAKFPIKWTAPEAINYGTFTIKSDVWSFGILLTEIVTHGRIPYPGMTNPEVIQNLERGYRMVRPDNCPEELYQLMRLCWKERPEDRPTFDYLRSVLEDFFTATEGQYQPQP
The assay can be described thus: Lck enzyme inhibitory activity (time-resolved fluorometry, biotinylated peptide phosphorylation). The following applies: read-out: LCK_IC50. In a few lines:
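Readout pairs a europium cryptate-labelled anti-phosphotyrosine antibody with XL665-streptavidin, measured by time-resolved fluorescence. IC50 derived from percent inhibition against untreated controls.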

For the next assay, the target named is T3, human Yes1 enzyme (Homo sapiens, UniProt P07947).
T3 construct: made in house
T3 sequence (P07947 whole entry): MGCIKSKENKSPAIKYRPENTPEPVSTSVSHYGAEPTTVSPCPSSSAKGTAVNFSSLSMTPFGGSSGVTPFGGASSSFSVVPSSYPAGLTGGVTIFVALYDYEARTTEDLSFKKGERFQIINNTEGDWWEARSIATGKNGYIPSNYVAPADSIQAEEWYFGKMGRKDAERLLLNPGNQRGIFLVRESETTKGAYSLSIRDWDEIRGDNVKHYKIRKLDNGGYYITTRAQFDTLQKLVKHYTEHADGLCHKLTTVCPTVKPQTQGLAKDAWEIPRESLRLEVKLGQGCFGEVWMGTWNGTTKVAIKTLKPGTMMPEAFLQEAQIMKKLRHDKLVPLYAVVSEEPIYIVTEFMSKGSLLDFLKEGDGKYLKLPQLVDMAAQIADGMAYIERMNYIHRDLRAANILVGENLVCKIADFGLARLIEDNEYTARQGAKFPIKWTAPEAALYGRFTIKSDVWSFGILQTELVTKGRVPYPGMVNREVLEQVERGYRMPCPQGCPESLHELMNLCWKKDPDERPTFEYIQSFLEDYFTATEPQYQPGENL
Kind of assay: Yes1 enzyme inhibitory activity (time-resolved fluorometry, biotinylated peptide phosphorylation). The conditions noted are these: read-out: YES_IC50. Summed up:
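Inhibition was expressed against a compound-free control to give IC50, using TR-FRET read-out (Eu-cryptate anti-pTyr antibody, streptavidin-XL665).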

T1 sequence (P12931 whole entry): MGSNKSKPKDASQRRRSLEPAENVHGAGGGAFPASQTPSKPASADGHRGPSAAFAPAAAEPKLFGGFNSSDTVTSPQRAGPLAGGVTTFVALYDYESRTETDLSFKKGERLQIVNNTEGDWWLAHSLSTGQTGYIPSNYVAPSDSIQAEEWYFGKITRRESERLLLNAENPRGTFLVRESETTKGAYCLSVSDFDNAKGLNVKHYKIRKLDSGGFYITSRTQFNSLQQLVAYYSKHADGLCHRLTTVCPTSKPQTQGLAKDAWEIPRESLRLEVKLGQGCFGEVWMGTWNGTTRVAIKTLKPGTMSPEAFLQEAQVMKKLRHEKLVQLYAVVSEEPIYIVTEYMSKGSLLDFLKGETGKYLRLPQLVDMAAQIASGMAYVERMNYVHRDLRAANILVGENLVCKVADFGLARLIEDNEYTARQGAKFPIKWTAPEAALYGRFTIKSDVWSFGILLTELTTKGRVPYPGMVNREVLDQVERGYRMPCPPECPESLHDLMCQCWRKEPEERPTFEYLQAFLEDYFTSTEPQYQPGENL

For the compound `Cc1cc(Oc2c(F)cccc2F)ncc1-n1ncc(C(=O)c2cc3cc(F)c(N(C(C)C)S(C)(=O)=O)cc3[nH]2)c1N` [Example 5-1-067, N-[2-[5-amino-1-[6-(2,6-difluorophenoxy)-4-methylpyridin-3-yl]pyrazole-4-carbonyl]-5-fluoro-1H-indol-6-yl]-N-propan-2-ylmethanesulfonamide], the IC50 on human Src enzyme stood at 62 nM; at human Lck enzyme, 5.6 nM; on human Yes1 enzyme it was 2.3 nM.

Consider `Cc1cc(Oc2ccccc2F)ccc1-n1ncc(C(=O)c2cc3cc(OCC(F)F)c(C4CCN(C(=O)OC(C)(C)C)CC4)cc3[nH]2)c1N` [Example 5-1-068, tert-Butyl 4-[2-[5-amino-1-[4-(2-fluorophenoxy)-2-methylphenyl]pyrazole-4-carbonyl]-5-(2,2-difluoroethoxy)-1H-indol-6-yl] piperidine-1-carboxylate], for which the IC50 at human Src enzyme worked out at 15 nM; at human Lck enzyme, 8.4 nM; on human Yes1 enzyme it was 5.6 nM.

With `Cc1cc(Oc2c(F)cccc2F)ncc1-n1ncc(C(=O)c2cc3cc(OCC(F)F)c(C4CCN(C(=O)OC(C)(C)C)CC4)cc3[nH]2)c1N` [Example 5-1-069, tert-Butyl 4-[2-[5-amino-1-[6-(2,6-difluorophenoxy)-4-methylpyridin-3-yl]pyrazole-4-carbonyl]-5-(2,2-difluoroethoxy)-1H-indol-6-yl]piperidine-1-carboxylate], the IC50 worked out at 33 nM on human Src enzyme, 20 nM at human Lck enzyme and 18 nM on human Yes1 enzyme.

As for `Cc1cc(Oc2ccccc2F)ccc1-n1ncc(C(=O)c2cc3cc(OCC(F)F)c(Br)cc3[nH]2)c1N` [Example 5-1-070, [5-amino-1-[4-(2-fluorophenoxy)-2-methylphenyl]pyrazol-4-yl]-[6-bromo-5-(2,2-difluoroethoxy)-1H-indol-2-yl]methanone], the results for the IC50 at human Src enzyme, at human Lck enzyme and at human Yes1 enzyme were 13 nM, 12 nM and 0.85 nM, respectively.

Regarding `CCOc1cc2cc(C(=O)c3cnn(-c4ccc(Oc5ccccc5F)cc4C)c3N)[nH]c2cc1C1CCN(S(=O)(=O)C2CC2)CC1` [Example 5-1-071, [5-amino-1-[4-(2-fluorophenoxy)-2-methylphenyl]pyrazol-4-yl]-[6-(1-cyclopropylsulfonylpiperidin-4-yl)-5-ethoxy-1H-indol-2-yl]methanone], the IC50 on human Src enzyme was determined as 67 nM; on human Lck enzyme, 61 nM; at human Yes1 enzyme, 28 nM.

Consider `Cc1cc(Oc2c(F)cccc2F)ncc1-n1ncc(C(=O)c2cc3cc(OC(F)F)c(-n4c(C)cc(=O)[nH]c4=O)cc3[nH]2)c1N` [Example 5-1-072, 1-[2-[5-amino-1-[6-(2,6-difluorophenoxy)-4-methylpyridin-3-yl]pyrazole-4-carbonyl]-5-(difluoromethoxy)-1H-indol-6-yl]-6-methylpyrimidine-2,4-dione], for which the IC50 at human Src enzyme stood at 36 nM; at human Lck enzyme, 8.2 nM; on human Yes1 enzyme, 7.7 nM.

Consider `CCOc1cc2cc(C(=O)c3cnn(-c4ccc(Oc5ccccc5F)cc4C)c3N)[nH]c2cc1C1CCN(S(C)(=O)=O)CC1` [Example 5-1-073, [5-amino-1-[4-(2-fluorophenoxy)-2-methylphenyl]pyrazol-4-yl]-[5-ethoxy-6-(1-methylsulfonylpiperidin-4-yl)-1H-indol-2-yl] methanone], for which the IC50 on human Src enzyme is 42 nM; on human Lck enzyme, 32 nM; at human Yes1 enzyme, 9.7 nM.

Take `Cc1cc(Oc2c(F)cccc2F)ncc1-n1ncc(C(=O)c2cc3cc(OC(F)F)c(N)cc3[nH]2)c1N` [Example 5-1-074, [6-amino-5-(difluoromethoxy)-1H-indol-2-yl]-[5-amino-1-[6-(2,6-difluorophenoxy)-4-methylpyridin-3-yl]pyrazol-4-yl]methanone]: the IC50 turned out to be 25 nM on human Src enzyme, 3.2 nM at human Lck enzyme and 1.6 nM at human Yes1 enzyme.
